Experimental data: patent US11040028B2, “Penicinotam derivative, preparation method and use thereof” (OCEAN UNIVERSITY OF CHINA, priority 2017, dated 2021)

What was measured:
Assay type in all cases: cell-based
[1] = test system: human dermal fibroblasts CCC-ESF-1; experiment: Anti-fibrosis activity test: inhibition of proliferation of human dermal fibroblasts CCC-ESF-1 (CCK-8); conditions: Fibroblast
Summary of the method: (§1)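 After one day of adherence at 37° C in 5% CO2, cells (seeded at 2×10^4 cells/mL) received the compounds for two days in triplicate. Inhibition of proliferation was quantified with CCK-8 at 450 nm, with IC50 calculated from IR = (1−Ai/Ao)×100%.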

[2] = test system: human hepatic stellate cells LX-2; experiment: Anti-fibrosis activity test: inhibition of proliferation of human hepatic stellate cells LX-2 (CCK-8); conditions: Homo sapiens, 48 h
Summary of the method: as §1

BHK-21 cells = experiment: Anti-fibrosis activity test: inhibition of BHK-21 cell proliferation (CCK-8); conditions: Mesocricetus auratus, BHK-21, 48 h
Summary of the method: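 Proliferation inhibition was read as CCK-8 absorbance at 450 nm (2-hour development) relative to untreated blank, with IC50 fitted from the curve. Before that, adhered cells (2×10^4 cells/mL, 24 hours) had 48 hours' treatment at several concentrations, in triplicate, at 37° C/5% CO2; pirfenidone was the reference.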

[3] = test system: human fibrosarcoma cells HT-1080; experiment: Anti-fibrosis activity test: inhibition of proliferation of human fibrosarcoma cells HT-1080 (CCK-8); conditions: Homo sapiens, HT-1080, 48 h
Summary of the method: as §1

[4] = test system: human embryonic lung fibroblast IMR-90; experiment: Anti-fibrosis activity test: inhibition of proliferation of human embryonic lung fibroblast IMR-90 (CCK-8)
Summary of the method: as §1

NF-κB = experiment: Immunological activity test: inhibition of NF-κB activity; conditions: initial concentration of 30 μM; a/b isomers given as first/second symbol; read-out: IC50 (μM), inhibitory activity against NF-κB
Summary of the method: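 IC50 values were derived after initial screening of compounds at 30 μM for NF-κB inhibitory activity, with parthenolide serving as the positive control.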

[5] = test system: mouse macrophages (RAW264.7); experiment: Lipopolysaccharide-induced NO secretion in macrophages (Griess); conditions: Mus musculus, RAW264.7, 24 h, RAW264.7, LPS 1 μg/ml, a/b isomers given as first/second symbol, read-out: IC50 (μM), inhibition of lipopolysaccharide-induced NO secretion in macrophages
Summary of the method: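 LPS 1 μg/ml, 24 h, RAW264.7 (DMEM/10% FBS); cpds at varied concs. Supernatant NO by Griess, A548; % inhibition vs blank medium.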

[6] = test system: cardiac fibroblast RAT-iCell-C002; experiment: Anti-fibrosis activity test: inhibition of proliferation of cardiac fibroblast RAT-iCell-C002 (CCK-8); conditions: Cardiac fibroblast, 48 h
Summary of the method: as §1

[7] = test system: human lung fibroblasts HFL1; experiment: Anti-fibrosis activity test: inhibition of proliferation of human lung fibroblasts HFL1 (CCK-8); conditions: Homo sapiens, HFL1, 48 h
Summary of the method: as §1

[8] = human dermal fibroblasts CCC-ESF-1, CCK-8, 48 hours
[9] = human hepatic stellate cells LX-2, CCK-8, 48 hours
[10] = CCK-8, 48 hours after administration
[11] = human fibrosarcoma cells HT-1080, CCK-8, 48 hours
[12] = human embryonic lung fibroblast IMR-90, CCK-8, 48 hours
[13] = cardiac fibroblast RAT-iCell-C002, CCK-8, 48 hours
[14] = human lung fibroblasts HFL1, CCK-8, 48 hours
[15] = Homo sapiens, CCC-ESF-1 cells, 48 h, CCK-8
[16] = Homo sapiens, IMR-90 cells, 48 h, CCK-8

Row | SMILES | IC50 [3, 11] [mM] | IC50 (NF-κB) [µM] | IC50 [5] [µM] | IC50 ([3]; HT-1080 cells, 48 h, CCK-8) [mM] | IC50 [1, 8] [mM] | IC50 [2, 9] [mM] | IC50 (BHK-21 cells; [10]) [mM] | IC50 [4, 12] [mM] | IC50 [6, 13] [mM] | IC50 [7, 14] [mM] | IC50 [1, 15] [mM] | IC50 ([2]; LX-2, 48 h, LX-2 cells, CCK-8) [mM] | IC50 (BHK-21 cells; 48 h, CCK-8) [mM] | IC50 [4, 16] [mM] | IC50 ([6]; RAT-iCell-C002 cells, CCK-8) [mM] | IC50 ([7]; HFL1 cells, 48 h, CCK-8) [mM]
1 | O=C1c2c(n(CCF)c3ccccc3c2=O)-c2cccn21 [Compound 653a, 4-(2-Fluoroethyl)-9H-pyrrolizino[1,2-b]quinoline-9,10(4H)-dione] | 0.05 to 5 | 1 to 10 | 1 to 10 | – | 0.05 to 5 | 0.05 to 5 | 0.05 to 5 | 0.05 to 5 | 0.05 to 5 | 0.05 to 5 | – | – | – | – | – | –
2 | Cc1cc2nc3c(c(O)c2cc1C)C(=O)n1cccc1-3 [Compound 756b, 9-hydroxy-6,7-dimethyl-10H-pyrrolizino[1,2-b]quinolin-10-one] | – | 1 to 10 | 10 to 50 | 0.05 to 5 | – | – | – | – | – | – | 0.05 to 5 | 0.05 to 5 | 0.05 to 5 | 0.05 to 5 | 0.05 to 5 | 0.05 to 5
3 | Cc1cc(C)c2c(=O)c3c([nH]c2c1)-c1cccn1C3=O [Compound 768a, 6,8-Dimethyl-9H-pyrrolizino[1,2-b]quinoline-9,10(4H)-dione] | – | 0.1 to 1 | 1 to 10 | 0.05 to 5 | – | – | – | – | – | – | 0.05 to 5 | 0.05 to 5 | 0.05 to 5 | 0.05 to 5 | 0.05 to 5 | 0.05 to 5
4 | CC(C)=CCOc1c2c(nc3ccc(F)cc13)-c1cccn1C2=O [Compound 112b, 7-fluoro-9-((3-methylbut-2-en-1-yl)oxy)-10H-pyrrolizino[1,2-b]quinolin-10-one] | 0.05 to 5 | 1 to 10 | 1 to 10 | – | 0.05 to 5 | 0.05 to 5 | 0.05 to 5 | 0.05 to 5 | 0.05 to 5 | 0.05 to 5 | – | – | – | – | – | –
5 | O=C1c2c(n(CCCN3CCOCC3)c3ccccc3c2=O)-c2cccn21 [Compound 663a, 4-(3-Morpholinopropyl)-9H-pyrrolizino[1,2-b]quinoline-9,10(4H)-dione] | 0.05 to 5 | 1 to 10 | 0.1 to 1 | – | 0.05 to 5 | 0.05 to 5 | < 0.05 | 0.05 to 5 | 0.05 to 5 | 0.05 to 5 | – | – | – | – | – | –
6 | O=C1c2c(nc3c(O)cccc3c2O)-c2cccn21 [Compound 445b, 5,9-dihydroxy-10H-pyrrolizino[1,2-b]quinolin-10-one] | 0.05 to 5 | 1 to 10 | 1 to 10 | – | 0.05 to 5 | 0.05 to 5 | 0.05 to 5 | 0.05 to 5 | 0.05 to 5 | 0.05 to 5 | – | – | – | – | – | –
7 | Cc1ccccc1Cn1c2c(c(=O)c3ccccc31)C(=O)n1cccc1-2 [Compound 574a, 4-(2-Methylbenzyl)-9H-pyrrolizino[1,2-b]quinoline-9,10(4H)-dione] | 0.05 to 5 | 1 to 10 | 1 to 10 | – | 0.05 to 5 | 0.05 to 5 | 0.05 to 5 | 0.05 to 5 | 0.05 to 5 | 0.05 to 5 | – | – | – | – | – | –
8 | O=C1c2c(nc3ccccc3c2OCCCCN2CCNCC2)-c2cccn21 [Compound 670b, 9-(4-(piperazin-1-yl)butoxy)-10H-pyrrolizino[1,2-b]quinolin-10-one] | – | 1 to 10 | 1 to 10 | 0.05 to 5 | – | – | – | – | – | – | 0.05 to 5 | 0.05 to 5 | 0.05 to 5 | 0.05 to 5 | 0.05 to 5 | 0.05 to 5
9 | O=C1c2c(n(Cc3ccc(F)cc3Cl)c3ccccc3c2=O)-c2cccn21 [Compound 572a, 4-(2-Chloro-4-fluorobenzyl)-9H-pyrrolizino[1,2-b]quinoline-9,10(4H)-dione] | 0.05 to 5 | 0.001 to 0.1 | 0.1 to 1 | – | 0.05 to 5 | 0.05 to 5 | 0.05 to 5 | 0.05 to 5 | 0.05 to 5 | 0.05 to 5 | – | – | – | – | – | –
10 | O=C1c2c([nH]c3c(Cl)cccc3c2=O)-c2cccn21 [Compound 443a, 5-Chloro-9H-pyrrolizino[1,2-b]quinoline-9,10(4H)-dione] | 0.05 to 5 | 1 to 10 | 1 to 10 | – | 0.05 to 5 | 0.05 to 5 | 0.05 to 5 | 0.05 to 5 | 0.05 to 5 | 0.05 to 5 | – | – | – | – | – | –
11 | O=C1c2c(n(Cc3cc(F)ccc3F)c3ccccc3c2=O)-c2cccn21 [Compound 573a, 4-(2,5-Difluorobenzyl)-9H-pyrrolizino[1,2-b]quinoline-9,10(4H)-dione] | 0.05 to 5 | 1 to 10 | 1 to 10 | – | 0.05 to 5 | 0.05 to 5 | 0.05 to 5 | < 0.05 | 0.05 to 5 | 0.05 to 5 | – | – | – | – | – | –
12 | O=C1c2c(nc3cc(OC(F)(F)F)ccc3c2O)-c2cccn21 [Compound 548b, 9-hydroxy-6-trifluoromethoxy-10H-pyrrolizino[1,2-b]quinolin-10-one] | 0.05 to 5 | 1 to 10 | 1 to 10 | – | 0.05 to 5 | 0.05 to 5 | 0.05 to 5 | 0.05 to 5 | 0.05 to 5 | 0.05 to 5 | – | – | – | – | – | –
13 | O=C1c2c([nH]c3ccc(Br)cc3c2=O)-c2cccn21 [Compound 246a, 7-Bromo-9H-pyrrolizino[1,2-b]quinoline-9,10(4H)-dione] | 0.05 to 5 | 1 to 10 | 1 to 10 | – | 0.05 to 5 | 0.05 to 5 | 5 to 20 | 0.05 to 5 | 0.05 to 5 | 0.05 to 5 | – | – | – | – | – | –

Further lines, with some results ahead:

Row | IC50 [3, 11] [mM] | IC50 (NF-κB) [µM] | IC50 [5] [µM] | IC50 ([3]; HT-1080 cells, 48 h, CCK-8) [mM] | SMILES | IC50 [1, 8] [mM] | IC50 [2, 9] [mM] | IC50 (BHK-21 cells; [10]) [mM] | IC50 [4, 12] [mM] | IC50 [6, 13] [mM] | IC50 [7, 14] [mM] | IC50 [1, 15] [mM] | IC50 ([2]; LX-2, 48 h, LX-2 cells, CCK-8) [mM] | IC50 (BHK-21 cells; 48 h, CCK-8) [mM] | IC50 [4, 16] [mM] | IC50 ([6]; RAT-iCell-C002 cells, CCK-8) [mM] | IC50 ([7]; HFL1 cells, 48 h, CCK-8) [mM]
14 | – | 1 to 10 | 1 to 10 | 0.05 to 5 | O=C1c2c(nc3ccccc3c2OCc2ccccc2[N+](=O)[O-])-c2cccn21 [Compound 668b, 9-((2-nitrobenzyl)oxy)-10H-pyrrolizino[1,2-b]quinolin-10-one] | – | – | – | – | – | – | 0.05 to 5 | 0.05 to 5 | 0.05 to 5 | 0.05 to 5 | 0.05 to 5 | 0.05 to 5
15 | 0.05 to 5 | 1 to 10 | 10 to 50 | – | O=C1c2c(nc3ccccc3c2OCc2ccc(Cl)c(Cl)c2)-c2cccn21 [Compound 613b, 9-((3,4-dichlorobenzyl)oxy)-10H-pyrrolizino[1,2-b]quinolin-10-one] | 0.05 to 5 | 0.05 to 5 | 0.05 to 5 | 0.05 to 5 | 0.05 to 5 | 0.05 to 5 | – | – | – | – | – | –
16 | 0.05 to 5 | 10 to 50 | 10 to 50 | – | O=C1c2c(nc3ccccc3c2OCc2c(F)cccc2F)-c2cccn21 [Compound 615b, 9-((2,6-difluorobenzyl)oxy)-10H-pyrrolizino[1,2-b]quinolin-10-one] | 0.05 to 5 | 0.05 to 5 | 0.05 to 5 | 0.05 to 5 | 0.05 to 5 | 0.05 to 5 | – | – | – | – | – | –
17 | 0.05 to 5 | 0.1 to 1 | 1 to 10 | – | O=C1c2c(n(Cc3ccc(Br)cc3)c3ccccc3c2=O)-c2cccn21 [Compound 594a, 4-(4-Bromobenzyl)-9H-pyrrolizino[1,2-b]quinoline-9,10(4H)-dione] | 0.05 to 5 | 0.05 to 5 | < 0.05 | 0.05 to 5 | 0.05 to 5 | 0.05 to 5 | – | – | – | – | – | –
18 | 0.05 to 5 | 0.1 to 1 | 1 to 10 | – | O=C1c2c(nc3ccccc3c2OCc2ccc(C(F)(F)F)cc2)-c2cccn21 [Compound 591b, 9-((4-(trifluoromethyl)benzyl)oxy)-10H-pyrrolizino[1,2-b]quinolin-10-one] | 0.05 to 5 | 0.05 to 5 | 0.05 to 5 | 0.05 to 5 | 0.05 to 5 | 0.05 to 5 | – | – | – | – | – | –
19 | 0.05 to 5 | 1 to 10 | 1 to 10 | – | O=C1c2c(nc3cccc(C(F)(F)F)c3c2O)-c2cccn21 [Compound 479b, 9-hydroxy-8-(trifluoromethyl)-10H-pyrrolizino[1,2-b]quinolin-10-one] | 0.05 to 5 | 0.05 to 5 | 0.05 to 5 | 0.05 to 5 | 0.05 to 5 | 0.05 to 5 | – | – | – | – | – | –
